Where a SMILES comes first, the peptide text is derived from it. Bridges are numbered along the chain shown (N, C = ends).
Biological target: human MCH receptor (Homo sapiens, UniProt Q99705)
Test: Aequorin bioluminescence functional assay in 293-AEQ17 cells transfected with human MCH receptor
Type: cell-based
Set-up: expressed in transfected cells; host or cells: 293-AEQ17 (aequorin-expressing HEK-293 reporter line), transient lipofectamine transfection, pcDNA-3 vector; Activity Activation %: concentration or dose not given beside the values
Description: The aequorin bioluminescence assay is a reliable test for measuring the activity of G protein-coupled receptors that couple through the Gα protein subunit family consisting of Gq and Gll and leads to the activation of phospholipase C, mobilization of intracellular calcium and activation of protein kinase C.
Following approximately 40 hours of expression the apo-aequorin in the cells was charged for 4 hours with coelenterazine (10 μM) under reducing conditions (300 μM reduced glutathione) in ECB buffer (140 mM NaCl, 20 mM KCl, 20 mM HEPES-NaOH [pH=7.4], 5 mM glucose, 1 mM MgCl2, 1 mM CaCl2, 0.1 mg/ml bovine serum albumin).
The cells were harvested, washed once in ECB medium and resuspended to 500,000 cells/ml. 100 μl of cell suspension (corresponding to 5×10^4 cells) was then injected into the test plate containing MCH or MCH analogs, and the integrated light emission was recorded over 30 seconds, in 0.5 second units. 20 μL of lysis buffer (0.1% final Triton X-100 concentration) was then injected and the integrated light emission recorded over 10 seconds, in 0.5 second units. The “fractional response” values for each well were calculated by taking the ratio of the integrated response to the initial challenge to the total integrated luminescence including the Triton X-100 lysis response.

[1] = Table 4, position 6 modification
[2] = Table 5, position 10 modification
[3] = Table 6, position 13 modification

human MCH receptor, sequence (Q99705 whole entry): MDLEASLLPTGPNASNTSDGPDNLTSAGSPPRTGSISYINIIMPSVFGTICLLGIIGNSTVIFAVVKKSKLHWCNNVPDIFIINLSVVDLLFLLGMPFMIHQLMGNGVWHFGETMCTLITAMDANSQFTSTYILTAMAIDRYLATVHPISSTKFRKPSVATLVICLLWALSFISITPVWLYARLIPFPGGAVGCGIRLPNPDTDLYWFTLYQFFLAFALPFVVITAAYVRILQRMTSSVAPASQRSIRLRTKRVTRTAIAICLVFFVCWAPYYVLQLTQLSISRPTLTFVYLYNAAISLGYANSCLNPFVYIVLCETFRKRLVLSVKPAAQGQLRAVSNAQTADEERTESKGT

Compound	Activity Activation % [1] [%]	Activity Activation % [2] [%]	other results
CSCC[C@@H]1NC(=O)[C@@H](NC(=O)[C@H](CCCNC(=N)N)NC(=O)[C@H](CC(C)C)NC(=O)[C@H](CCSC)NC(=O)[C@H](CC(=O)O)NC(=O)[C@H](Cc2ccccc2)NC(=O)[C@@H](N)CC(=O)O)CSSC[C@@H](C(=O)N[C@@H](Cc2c[nH]c3ccccc23)C(=O)N[C@@H](CCC(N)=O)C(=O)N[C@H](C(=O)O)C(C)C)NC(=O)[C@@H]2CCCN2C(=O)[C@H](CCCNC(=N)N)NC(=O)[C@H](Cc2ccc(O)cc2)NC(=O)[C@H](C(C)C)NC(=O)[C@H](CCCNC(=N)N)NC(=O)CNC(=O)[C@H](CC(C)C)NC1=O [compound 11]	100	100	% Activation at 10 μM (Table 1, at 10 μM, aequorin functional assay): 100%; Activity Activation % (Table 2, D-amino acid analogs): 100%; Activity Activation % (Table 3, N-methyl-amino acid analogs): 100%; Activity Activation % [3]: 100%; Activity Activation % (Table 7, combinations and position 8): 100%
CSCC[C@@H]1NC(=O)[C@@H](NC(=O)[C@H](C)NC(C)=O)CSSC[C@@H](C(N)=O)NC(=O)[C@@H]2CCCN2C(=O)[C@H](CCCNC(=N)N)NC(=O)[C@H](Cc2ccc(O)cc2)NC(=O)[C@H](C(C)C)NC(=O)[C@H](CCCNC(=N)N)NC(=O)CNC(=O)[C@H](CC(C)C)NC1=O [compound 31] (Ac-ACMLGRVYRPC-NH2; disulfide 2-11 (inferred))	135	–	–
CSCC[C@@H]1NC(=O)[C@@H](NC(=O)[C@@H]2CCCN2C(C)=O)CSSC[C@@H](C(N)=O)NC(=O)[C@@H]2CCCN2C(=O)[C@H](CCCNC(=N)N)NC(=O)[C@H](Cc2ccc(O)cc2)NC(=O)[C@H](C(C)C)NC(=O)[C@H](CCCNC(=N)N)NC(=O)CNC(=O)[C@H](CC(C)C)NC1=O [compound 33]	133	–	–
CSCC[C@@H]1NC(=O)[C@@H](NC(=O)[C@H](CC(N)=O)NC(C)=O)CSSC[C@@H](C(N)=O)NC(=O)[C@@H]2CCCN2C(=O)[C@H](CCCNC(=N)N)NC(=O)[C@H](Cc2ccc(O)cc2)NC(=O)[C@H](C(C)C)NC(=O)[C@H](CCCNC(=N)N)NC(=O)CNC(=O)[C@H](CC(C)C)NC1=O [compound 34]	96	–	–
CSCC[C@@H]1NC(=O)[C@@H](NC(=O)[C@H](CO)NC(C)=O)CSSC[C@@H](C(N)=O)NC(=O)[C@@H]2CCCN2C(=O)[C@H](CCCNC(=N)N)NC(=O)[C@H](Cc2ccc(O)cc2)NC(=O)[C@H](C(C)C)NC(=O)[C@H](CCCNC(=N)N)NC(=O)CNC(=O)[C@H](CC(C)C)NC1=O [compound 35]	120	–	–
CSCC[C@@H]1NC(=O)[C@@H](NC(=O)[C@H](CCC(=O)O)NC(C)=O)CSSC[C@@H](C(N)=O)NC(=O)[C@@H]2CCCN2C(=O)[C@H](CCCNC(=N)N)NC(=O)[C@H](Cc2ccc(O)cc2)NC(=O)[C@H](C(C)C)NC(=O)[C@H](CCCNC(=N)N)NC(=O)CNC(=O)[C@H](CC(C)C)NC1=O [compound 36]	113	–	–
CSCC[C@@H]1NC(=O)[C@@H](N)CSSC[C@@H](C(N)=O)NC(=O)[C@@H]2CCCN2C(=O)[C@H](CCCNC(=N)N)NC(=O)[C@H](Cc2ccc(O)cc2)NC(=O)[C@H](C(C)C)NC(=O)[C@H](CCCNC(=N)N)NC(=O)CNC(=O)[C@H](CC(C)C)NC1=O [compound 37]	120	–	–
CSCC[C@@H]1NC(=O)[C@@H](NC(C)=O)CSSC[C@@H](C(N)=O)NC(=O)[C@@H]2CCCN2C(=O)[C@H](CCCNC(=N)N)NC(=O)[C@H](Cc2ccc(O)cc2)NC(=O)[C@H](C(C)C)NC(=O)[C@H](CCCNC(=N)N)NC(=O)CNC(=O)[C@H](CC(C)C)NC1=O [compound 38]	82	–	–
CSCC[C@@H]1NC(=O)[C@@H](NC(=O)[C@@H](N)CCCNC(=N)N)CSSC[C@@H](C(N)=O)NC(=O)[C@@H]2CCCN2C(=O)[C@H](CCCNC(=N)N)NC(=O)[C@H](Cc2ccc(O)cc2)NC(=O)[C@H](C(C)C)NC(=O)[C@H](CCCNC(=N)N)NC(=O)CNC(=O)[C@H](CC(C)C)NC1=O [compound 39]	106	–	–
CSCC[C@@H]1NC(=O)[C@@H](NC(=O)[C@H](CCCNC(=N)N)NC(C)=O)CSSC[C@@H](C(N)=O)NC(=O)[C@@H]2CCCN2C(=O)[C@H](CCCNC(=N)N)NC(=O)[C@H](Cc2ccc(O)cc2)NC(=O)[C@H](C(C)C)NC(=O)[C@H](CCCNC(=N)N)NC(=O)[C@H](C)NC(=O)[C@H](CC(C)C)NC1=O [compound 47] (Ac-RCMLARVYRPC-NH2; disulfide 2-11)	–	104	–
CSCC[C@@H]1NC(=O)[C@@H](NC(=O)[C@H](CCCNC(=N)N)NC(C)=O)CSSC[C@@H](C(N)=O)NC(=O)[C@@H]2CCCN2C(=O)[C@H](CCCNC(=N)N)NC(=O)[C@H](Cc2ccc(O)cc2)NC(=O)[C@H](C(C)C)NC(=O)[C@H](CCCNC(=N)N)NC(=O)[C@H](CC(C)C)NC(=O)[C@H](CC(C)C)NC1=O [compound 48]	–	106	–
CSCC[C@@H]1NC(=O)[C@@H](NC(=O)[C@H](CCCNC(=N)N)NC(C)=O)CSSC[C@@H](C(N)=O)NC(=O)[C@@H]2CCCN2C(=O)[C@H](CCCNC(=N)N)NC(=O)[C@H](Cc2ccc(O)cc2)NC(=O)[C@H](C(C)C)NC(=O)[C@H](CCCNC(=N)N)NC(=O)[C@H](CC(N)=O)NC(=O)[C@H](CC(C)C)NC1=O [compound 51] (Ac-RCMLNRVYRPC-NH2; disulfide 2-11)	–	106	EC50 [2]: 23 nM
CSCC[C@@H]1NC(=O)[C@@H](NC(=O)[C@H](CCCNC(=N)N)NC(C)=O)CSSC[C@@H](C(N)=O)NC(=O)[C@@H]2CCCN2C(=O)[C@H](CCCNC(=N)N)NC(=O)[C@H](Cc2ccc(O)cc2)NC(=O)[C@H](C(C)C)NC(=O)[C@H](CCCNC(=N)N)NC(=O)[C@H](CO)NC(=O)[C@H](CC(C)C)NC1=O [compound 52] (Ac-RCMLSRVYRPC-NH2; disulfide 2-11 (inferred))	–	104	–
CSCC[C@@H]1NC(=O)[C@@H](NC(=O)[C@H](CCCNC(=N)N)NC(C)=O)CSSC[C@@H](C(N)=O)NC(=O)[C@@H]2CCCN2C(=O)[C@H](CCCNC(=N)N)NC(=O)[C@H](Cc2ccccc2)NC(=O)[C@H](C(C)C)NC(=O)[C@H](CCCNC(=N)N)NC(=O)CNC(=O)[C@H](CC(C)C)NC1=O [compound 62]	–	–	Activity Activation % [3]: 96%

Source: patent US7220720B2, “Melanin-concentrating hormone analogs” (Merk & Co., Inc., priority 2000, dated 2007)
